Patent US7122686B2, “Analogs of discodermolide and dictyostatin-1, intermediates therefor and methods of synthesis thereof” (University of Pittsburgh, priority 2002, dated 2006)
Entries after “also recorded” stand apart in the source; their conditions may differ.

Legend:
tubulin = assay: Tubulin polymerization (microtubule stabilizing activity); format: biochemical, bovine; conditions: in comparison to 10 μM paclitaxel; turbidity, cold-induced disassembly
Protocol: Tubulin Polymerization.[32] Tubulin assembly was followed in a Beckman-Coulter 7400 spectrophotometer, equipped with an electronic Peltier temperature controller, reading absorbance (turbidity) at 350 nm. Reaction mixtures (0.25 mL final volume) contained tubulin (final concentration 10 μM; 1 mg/mL), monosodium glutamate (0.8 M from a stock solution adjusted to pH 6.6 with HCl), DMSO (final volume 4% v/v), and differing concentrations of test agent where indicated. Reaction mixtures without test agent were cooled to 0° C. and added to cuvettes held at 0.25–0.5° C. in the spectrophotometer. Test agent in DMSO was then rapidly mixed in the reaction mixture. Each run contained one positive control (paclitaxel, 10 μM final concentration) and one negative control (DMSO only). Baselines were established at 0.25–2.5° C. and temperature was rapidly raised to 30° C. (in approximately 1 min) and held there for 20 min.

2008 (ovarian) = assay: Cell growth inhibition, 2008 (ovarian); format: cell-based, human; conditions: for GI50: Homo sapiens, 72 h, read-out: GI50 (μM) 2008 (ovarian); for 50% growth inhibitory concentration: human ovarian cancer cells
Protocol: (§1) Cell Growth Inhibition[34] Cells were plated (500–2000 cells/well depending on the cell line) in 96-well microplates, allowed to attach and grow for 48 h, then treated with vehicle (4% DMSO, a concentration that allowed doubling times of 24 h or less) or test agent (50, 10, 2, 0.4 and 0.08 μM for the new agents; 0.001, 0.005, 0.010, 0.020 and 0.100 μM for paclitaxel and discodermolide) for the given times. One plate consisted of cells from each line used for a time zero cell number determination. The other plates in a given determination contained eight wells of control cells, eight wells of medium and each agent concentration tested in quadruplicate. Cell numbers were obtained spectrophotometrically (absorbance at 490 nm minus that at 630 nm) in a Dynamax plate reader after treatment with 3-(4,5-dimethylthiazol-2-yl)-5-(3-carboxymethoxyphenyl)-2-(4-sulfophenyl)-2H-tetrazolium (MTS) using phenazine methanesulfonate as the electron acceptor. After initial screening with the above 5-fold dilutions, fifty percent growth inhibitory concentration (GI50) values were determined for each agent by repeating the screen using 2-fold dilutions (five concentrations) centered on the initial estimated GI50 concentration, again in quadruplicate.

[1] = tested on: paclitaxel binding site on tubulin; assay: Paclitaxel binding site inhibition assay ([3H]paclitaxel displacement); design: species or system bovine
Protocol: Paclitaxel binding site inhibition assay. A stock solution of [^3H]paclitaxel (26.8 μM, 16.2 Ci/mmol), obtained from the NCI, was prepared in 37% (v/v) DMSO. The test agents were prepared in 25% (v/v) DMSO-0.75 M monosodium glutamate (prepared from a 2M stock solution adjusted to pH 6.6 with HCl). The radiolabeled paclitaxel and test agents, as indicated in terms of final concentrations, were mixed in equal volumes and warmed to 37° C. A reaction mixture (50 μL) containing 0.75 M monosodium glutamate, 4.0 μM tubulin, and 40 μM ddGTP (a non-hydrolyzable analog of GTP) was prepared and incubated at 37° C. for 30 min to preform microtubules. An equivalent volume of drug mixture with [^3H]paclitaxel was added to preformed polymer and incubated for 30 min at 37° C. Bound [^3H]paclitaxel was separated from free drug by centrifugation of the reaction mixtures at 14000 rpm for 20 min at room temperature. Non-specific binding was determined by addition of a 12-fold excess of docetaxel. Radioactive counts from the supernatant (50 μL) were determined by scintillation spectrometry. Bound [^3H]paclitaxel was calculated from the following: total paclitaxel added to each reaction mixture minus the paclitaxel present in the supernatant (free drug). The % bound values were normalized to the control values with no inhibitor added.

MDA-MB231 (breast) = assay: Cell growth inhibition, MDA-MB231 (breast); format: cell-based, human; conditions: for GI50: Homo sapiens, MDA-MB-231, 72 h, read-out: GI50 (μM) MDA-MB231 (breast); for 50% growth inhibitory concentration: human breast cancer cells
Protocol: as §1

PC3 (prostate) = assay: Cell growth inhibition, PC3 (prostate); format: cell-based; conditions: Homo sapiens, 72 h, read-out: GI50 (μM) PC3 (prostate)
Protocol: as §1

Compound	Tubulin polymerization-inducing properties (FIGS. 6A-D, in words) (tubulin)	50% growth inhibitory concentration (MDA-MB231 (breast))	50% growth inhibitory concentration (2008 (ovarian))	also measured
C=C/C=C\[C@H](C)[C@H](OC(N)=O)[C@@H](C)[C@H](O)[C@@H](C)C/C(C)=C\[C@H](C)[C@@H](O)[C@@H](C)/C=C\[C@@H](O)C[C@@H]1OC(=O)[C@H](C)[C@@H](O)[C@H]1C [discodermolide, (+)-discodermolide]	superior to paclitaxel			
C=C/C=C\[C@H](C)[C@H](OC(N)=O)[C@@H](C)[C@H](O)CC/C=C\[C@H](C)[C@H](O)[C@@H](C)/C=C\CC[C@@H]1OC(=O)[C@H](C)[C@@H](OCOC)[C@H]1C [Compound 41, Carbamic acid, (1S,2S,3R,6Z,8S,9S,10S,11Z)-3,9-dihydroxy-14-[(2S,3S,4S,5R)-4-methoxymethoxy-3,5-dimethyl-6-oxotetrahydropyran-2-yl]-2,8,10-trimethyl-1-[(1S,2Z)-1-methylpenta-2,4-dienyl]tetradeca-6,11-dienyl ester]	more rapid polymer-inducing and cold-resistant properties; also recorded: most potent among these analogs	submicromolar		GI50 (2008 (ovarian)): 0.65 ± 0.25 µM; Displacement of [3H]paclitaxel from microtubules (in words) ([1]; 2-fold molar excess of test agent): better than paclitaxel and at almost the same potency as discodermolide; GI50 (MDA-MB231 (breast)): 0.87 ± 0.21 µM; GI50 (PC3 (prostate)): 1.8 ± 0.9 µM
C=CC=C[C@H](C)[C@@H](O)[C@H](C)[C@H](O)CCC=C[C@H](C)[C@@H](O)[C@@H](C)C=CCCCCCCCCC(=O)OC [Compound 48, (12S,13S,14S,19R,20R,21R,22S)-13,19,21-Trihydroxy-12,14,20,22-tetramethylhexacosa-10,15,23,25-tetraenoic acid methyl ester]		15 to 30 µM	15 to 30 µM	
C=CC=C[C@H](C)[C@@H](O)[C@H](C)[C@H](O)CCC=C[C@H](C)[C@@H](O)[C@@H](C)C=CCCCCCCCCCO [Compound 47, (12S,13S,14S,19R,20R,21R,22S)-12,14,20,22-Tetramethylhexacosa-10,15,23,25-tetraene-1,13,19,21-tetraol]		15 to 30 µM	15 to 30 µM	
C=C/C=C\[C@H](C)[C@H](OC(N)=O)[C@@H](C)[C@H](O)CC/C=C\[C@H](C)[C@H](O)[C@@H](C)/C=C\CC[C@@H]1O[C@@H](OC)[C@H](C)[C@@H](OCOC)[C@H]1C [Compound 42, Carbamic acid, (1S,2S,3R,6Z,8S,9S,10S,11Z)-3,9-dihydroxy-14-[(2S,3S,4S,5R,6R)-6-methoxy-4-methoxymethoxy-3,5-dimethyltetrahydropyran-2-yl]-2,8,10-trimethyl-1-[(1S,2Z)-1-methylpenta-2,4-dienyl]tetradeca-6,11-dienyl ester]	more rapid polymer-inducing and cold-resistant properties			GI50 (2008 (ovarian)): 4.7 ± 0.6 µM; GI50 (MDA-MB231 (breast)): 3.4 ± 0.8 µM; GI50 (PC3 (prostate)): 15 ± 3 µM
C=CC=CC(C)[C@H]1OC(=O)C=CC=C[C@@H](C)[C@H](O)CCC=C[C@H](C)[C@H](O)[C@@H](C)C=CCC[C@@H](O)[C@H]1C (stereo partly drawn) [Compound 54, (7R,8R,13S,14S,15S,20R,21R,22R,23S)-8,14,20-Trihydroxy-7,13,15,21-tetramethyl-22-(1-methylpenta-2,4-dienyl)-oxacyclodocosa-3,5,11,16-tetraen-2-one]		about 1 μM	about 1 μM	[3H]paclitaxel displacement potency relative to discodermolide ([1]; [3H]paclitaxel stoichiometrically bound to microtubules): about ⅓
C=CC=C[C@H](C)[C@H]1OC(=O)CCCCCCCCC=C[C@H](C)[C@H](O)[C@@H](C)C=CCC[C@@H](O)[C@H]1C [Compound 43, (1S,13S,14S,15S,20R,21R,22R)-14,20-Dihydroxy-13,15,21-trimethyl-22-(1-methylpenta-2,4-dienyl)-oxacyclodocosa-11,16-dien-2-one]		15 to 30 µM	15 to 30 µM	
C=CC=C[C@H](C)[C@@H](O)[C@H](C)[C@H](O)CCC=C[C@H](C)[C@@H](O)[C@@H](C)C=CCCCCCCCCC(=O)O [Compound 49, (12S,13S,14S,19R,20R,21R,22S)-13,19,21-Trihydroxy-12,14,20,22-tetramethylhexacosa-10,15,23,25-tetraenoic acid]		> 50 µM	> 50 µM	
